Results on 8 compounds are retold here after US10933059B2, “Combination, application thereof and treatment method” (KANGPU BIOPHARMACEUTICALS, LTD., priority 2016, dated 2021).

One assay concerns LNCap cells. In words: CTG cell proliferation assay on LNCap cells (method of Effect embodiment 1). Type of assay: cell-based.
The test system of a further assay is Vcap cells. Put plainly: CTG cell proliferation assay on Vcap cells (compounds alone or in combination, 5 days). Format: cell-based. Conditions: for viability at 0.1 µM / viability at 1 µM / viability at 10 µM: Homo sapiens, VCaP, 120 h, read-out: Survival rate of Vcap cells; for Vcap cell proliferation inhibition rate: 5 days. Here is the method: In vitro test of the inhibition effect of the compound in combination with androgen receptor pathway modulators on the prostate cancer cell proliferation.
Inhibition effect of the compounds such as B101, B102, B103, B104, B105, B106, C111 and the like, androgen receptor pathway modulators, hormone compounds, alone or in combination with each other on the prostate cancer cell proliferation were tested on Vcap cells (androgen receptor (+) prostate cancer cells) (ATCC, catalogue number CRL-2876). The specific experimental operation was as follows: 5×10^3 Vcap cells per well were inoculated into 96-well plates with transparent bottom and white wall (Corning, catalogue number CLS3903) containing the specific medium, and were cultured in a 37° C., 5% CO2 incubator for 24 hours. The tested compounds and the androgen receptor pathway modulators were prepared to a 150 mM stocking solution with DMSO (Sigma, catalogue number 276855), diluted with culture medium to the desired concentrations (the final concentration of DMSO is 0.2%), and then added to each well, 2 wells/concentration, followed by being incubated in a 37° C., 5% CO2 incubator for 5 days. The tested compounds were used alone or in combination with other androgen receptor pathway modulators and/or hormone compounds respectively. […] After that, 100 μl of CellTiter-Glo® cell viability assay reagent (Promega, catalogue number G7570) was added to each well and mixed well on a vibrator for 10 minutes to induce cell lysis. The 96-well plate was placed at room temperature for 10 minutes, so as to stabilize its luminescence signal. A white bottom membrane was pasted on the bottom of the plate and the plate was tested using EnSpire.

[1] abbreviates: tested compound 0.1 μM in combination with 1 μM ARN-509.
Where [2] appears, read: tested compound 0.1 μM in combination with 1 μM Abiraterone acetate.
Where [3] appears, read: tested compound 0.1 μM in combination with 1 μM Enzalutamide.
The mark [4] stands for this setting: tested compound 0.1 μM in combination with 1 μM Galeterone.
The mark [5] stands for this setting: tested compound 1 μM in combination with 1 μM ARN-509.
Where [6] appears, read: tested compound 1 μM in combination with 1 μM Abiraterone acetate.
Where [7] appears, read: tested compound 1 μM in combination with 1 μM Enzalutamide.
Setting [8] is: tested compound 1 μM in combination with 1 μM Galeterone.
[9] abbreviates: tested compound 10 μM in combination with 1 μM ARN-509.
Where [10] appears, read: tested compound 10 μM in combination with 1 μM Abiraterone acetate.
The mark [11] stands for this setting: tested compound 10 μM in combination with 1 μM Enzalutamide.
Setting [12] is: tested compound 10 μM in combination with 1 μM Galeterone.
Setting [13] is: tested compound 0.1 μM in combination with 1 μM ODM-201.
The mark [14] stands for this setting: tested compound 1 μM in combination with 1 μM ODM-201.
The mark [15] stands for this setting: tested compound 10 μM in combination with 1 μM ODM-201.
Where [16] appears, read: tested compound 0.1 μM in combination with 1 μM B101.
[17] abbreviates: tested compound 0.1 μM in combination with 1 μM B105.
Where [18] appears, read: tested compound 1 μM in combination with 1 μM B101.
The mark [19] stands for this setting: tested compound 1 μM in combination with 1 μM B105.
Setting [20] is: tested compound 10 μM in combination with 1 μM B101.
The mark [21] stands for this setting: tested compound 10 μM in combination with 1 μM B105.

With `C[C@]12CC[C@H](O)CC1=CC[C@@H]1[C@@H]2CC[C@]2(C)C(n3cnc4ccccc43)=CC[C@@H]12` [Galeterone, reference compound], the “Survival rate of LNCap cells” value with LNCap cells (tested compound alone, 0.1 μM) came to 104.9%; with LNCap cells (tested compound alone, 1 μM), 79%; in the assay with LNCap cells (tested compound alone, 10 μM), 24.2%. For the same compound, in the assay on Vcap cells (tested compound alone, 0.1 μM), the viability at 0.1 µM amounted to 95.9%. In addition, the viability at 1 µM in the assay on Vcap cells (tested compound alone, 1 μM) stood at 62.8%. For the same compound, the viability at 10 µM with Vcap cells (tested compound alone, 10 μM) stood at 19.3%. In addition, the “Survival rate of Vcap cells” value in the assay with Vcap cells (tested compound alone, 1 μM) was determined as 62.8%.
In the case of `Nc1cc(F)cc2c1CN(C1CCC(=O)NC1=O)C2=O` (stereo not drawn) [B101], the “Survival rate of LNCap cells” value in the assay on LNCap cells (setting [1]) was 86.7%; with LNCap cells (setting [2]), 82.4%; in the assay on LNCap cells (setting [3]), 59.3%; with LNCap cells (setting [4]), 76.3%; in the assay with LNCap cells (setting [5]), 46.3%; in the assay on LNCap cells (setting [6]), 46.2%. The “Survival rate of LNCap cells” value in the assay with LNCap cells (setting [7]) amounted to 34.1%; with LNCap cells (setting [8]), 43.6%; in the assay with LNCap cells (setting [9]), 32.4%; in the assay on LNCap cells (setting [10]) it was 33.2%; with LNCap cells (setting [11]), 27.1%; in the assay with LNCap cells (setting [12]), 31.4%. The “Survival rate of LNCap cells” value in the assay with LNCap cells (tested compound alone, 0.1 μM) was 99.6%; with LNCap cells (tested compound alone, 1 μM), 63%; in the assay with LNCap cells (tested compound alone, 10 μM), 42.4%. For the same compound, in the assay on Vcap cells (tested compound alone, 0.1 μM), the viability at 0.1 µM came out at 77.7%. For the same compound, the viability at 1 µM in the assay on Vcap cells (tested compound alone, 1 μM) stood at 65.4%. The viability at 10 µM in the assay with Vcap cells (tested compound alone, 10 μM) is 64.7%. Further, the “Survival rate of Vcap cells” value is 29.3% with Vcap cells (setting [1]); 61.8% in the assay on Vcap cells (setting [2]); 30.6% in the assay with Vcap cells (setting [3]); 38.6% in the assay on Vcap cells (setting [4]); 43.8% in the assay with Vcap cells (setting [13]); 24.3% in the assay with Vcap cells (setting [5]). The “Survival rate of Vcap cells” value with Vcap cells (setting [6]) came out at 56.6%; with Vcap cells (setting [7]), 25.2%; in the assay with Vcap cells (setting [8]), 34.4%; in the assay with Vcap cells (setting [14]) it was 37.1%; in the assay with Vcap cells (setting [9]), 24.5%; with Vcap cells (setting [10]), 52.9%. The “Survival rate of Vcap cells” value in the assay with Vcap cells (setting [11]) came out at 24.4%; in the assay with Vcap cells (setting [12]), 32.5%; with Vcap cells (setting [15]) it was 32.5%.
As to `[2H][C@]1(N2Cc3c(N)cc(F)cc3C2=O)CCC(=O)NC1=O` [B105], the “Survival rate of LNCap cells” value was determined as 82.6% in the assay with LNCap cells (setting [1]); 83.7% with LNCap cells (setting [2]); 57.5% in the assay on LNCap cells (setting [3]); 73.4% in the assay on LNCap cells (setting [4]); 44.7% in the assay on LNCap cells (setting [5]); 47.9% with LNCap cells (setting [6]). In addition, the “Survival rate of LNCap cells” value in the assay on LNCap cells (setting [7]) was found to be 32%; in the assay on LNCap cells (setting [8]) it was 40.6%; with LNCap cells (setting [9]), 32.4%; in the assay with LNCap cells (setting [10]), 31.7%; in the assay with LNCap cells (setting [11]), 25.8%; in the assay on LNCap cells (setting [12]) it was 30.6%. Further, the “Survival rate of LNCap cells” value in the assay on LNCap cells (tested compound alone, 0.1 μM) came to 102.9%; in the assay with LNCap cells (tested compound alone, 1 μM), 61.5%; in the assay on LNCap cells (tested compound alone, 10 μM) it was 40.8%. For the same compound, the “Vcap cell proliferation inhibition rate” value is given as 17.4% with Vcap cells (B105 or C111 0.05 μM alone); 23.9% with Vcap cells (B105 or C111 0.14 μM alone); 26.3% in the assay on Vcap cells (B105 or C111 1.23 μM alone); 25.9% in the assay with Vcap cells (B105 or C111 3.70 μM alone); 27.0% with Vcap cells (B105 or C111 11.11 μM alone); 27.4% in the assay on Vcap cells (B105 or C111 33.33 μM alone). The “Vcap cell proliferation inhibition rate” value with Vcap cells (B105 or C111 100.00 μM alone) amounted to 25.1%; with Vcap cells (B105 or C111 300.00 μM alone) it was 22.8%. Besides, the viability at 0.1 µM in the assay with Vcap cells (tested compound alone, 0.1 μM) stood at 83.3%. For the same compound, the viability at 1 µM with Vcap cells (tested compound alone, 1 μM) came to 72.5%. For the same compound, in the assay with Vcap cells (tested compound alone, 10 μM), the viability at 10 µM was determined as 72.7%. For the same compound, the “Survival rate of Vcap cells” value in the assay with Vcap cells (setting [1]) is listed as 30.6%; in the assay with Vcap cells (setting [2]), 65.0%; with Vcap cells (setting [3]), 31.6%; in the assay on Vcap cells (setting [4]) it was 40.9%; in the assay with Vcap cells (setting [13]), 43.3%; in the assay on Vcap cells (setting [5]) it was 28.0%. In addition, the “Survival rate of Vcap cells” value in the assay with Vcap cells (setting [6]) is listed as 57.1%; in the assay with Vcap cells (setting [7]), 27.5%; in the assay on Vcap cells (setting [8]), 36.7%; with Vcap cells (setting [14]), 36.6%; in the assay with Vcap cells (setting [9]), 27.0%; in the assay on Vcap cells (setting [10]), 58.0%. The “Survival rate of Vcap cells” value with Vcap cells (setting [11]) was determined as 27.5%; in the assay on Vcap cells (setting [12]), 36.3%; in the assay on Vcap cells (setting [15]), 32.2%.
As to `CC(=O)O[C@H]1CC[C@@]2(C)C(=CC[C@@H]3[C@@H]2CC[C@]2(C)C(c4cccnc4)=CC[C@@H]32)C1` [Abiraterone acetate, reference compound], the “Survival rate of LNCap cells” value with LNCap cells (tested compound alone, 0.1 μM) was found to be 109.2%; with LNCap cells (tested compound alone, 1 μM), 90.7%; in the assay with LNCap cells (tested compound alone, 10 μM), 45.2%. Further, the viability at 0.1 µM in the assay with Vcap cells (tested compound alone, 0.1 μM) came to 106%. Moreover, the viability at 1 µM in the assay on Vcap cells (tested compound alone, 1 μM) was determined as 91.7%. The “Survival rate of Vcap cells” value in the assay on Vcap cells (setting [16]) is on record as 72.2%; with Vcap cells (setting [17]) it was 77.3%; in the assay with Vcap cells (setting [18]), 70.5%; in the assay on Vcap cells (setting [19]) it was 70.7%; with Vcap cells (setting [20]) it was 66.7%; with Vcap cells (setting [21]), 69.2%.
On to `C[C@]12C=CC(=O)C=C1CC[C@@H]1[C@@H]2C(=O)C[C@@]2(C)[C@H]1CC[C@]2(O)C(=O)CO` [Prednisone, reference compound], for which the viability at 0.1 µM with Vcap cells (tested compound alone, 0.1 μM) came out at 99.1%. Further, the viability at 1 µM in the assay with Vcap cells (tested compound alone, 1 μM) is 99.7%. The viability at 10 µM in the assay with Vcap cells (tested compound alone, 10 μM) was 99.4%. Further, the “Survival rate of Vcap cells” value with Vcap cells (setting [16]) stood at 84.0%; in the assay with Vcap cells (setting [17]), 87.5%; with Vcap cells (setting [18]), 76.9%; in the assay on Vcap cells (setting [19]), 80.6%; in the assay on Vcap cells (setting [20]) it was 75.3%; in the assay on Vcap cells (setting [21]), 79.7%.
In the case of `CC(=O)S[C@@H]1CC2=CC(=O)CC[C@]2(C)[C@H]2CC[C@@]3(C)[C@@H](CC[C@@]34CCC(=O)O4)[C@H]12` [Spironolactone, reference compound], the viability at 0.1 µM with Vcap cells (tested compound alone, 0.1 μM) came out at 100%. Moreover, the viability at 1 µM in the assay with Vcap cells (tested compound alone, 1 μM) was 91.3%. Also, the viability at 10 µM in the assay with Vcap cells (tested compound alone, 10 μM) worked out at 72.5%. The “Survival rate of Vcap cells” value in the assay with Vcap cells (setting [16]) is recorded as 85.3%; in the assay on Vcap cells (setting [17]), 87.2%; in the assay with Vcap cells (setting [18]), 77.3%; with Vcap cells (setting [19]), 79.6%; with Vcap cells (setting [20]), 65.9%; in the assay with Vcap cells (setting [21]), 64.5%.
On to `CC(=O)Nc1ccc(OC[C@](C)(O)C(=O)Nc2ccc([N+](=O)[O-])c(C(F)(F)F)c2)cc1` [Andarine, reference compound], for which the “Survival rate of Vcap cells” value stood at 69.8% in the assay with Vcap cells (setting [16]); 71.1% in the assay on Vcap cells (setting [17]); 65.5% in the assay on Vcap cells (setting [18]); 64.6% with Vcap cells (setting [19]); 53.8% with Vcap cells (setting [20]); 53.5% with Vcap cells (setting [21]). Besides, the “Survival rate of Vcap cells” value in the assay with Vcap cells (tested compound alone, 0.1 μM) turned out to be 85.6%; with Vcap cells (tested compound alone, 1 μM), 82.7%; in the assay on Vcap cells (tested compound alone, 10 μM), 69.4%.
With `[2H]C1(N2Cc3c(N)cc(F)cc3C2=O)CCC(=O)NC1=O` (stereo not drawn) [B104], the viability at 0.1 µM in the assay on Vcap cells (tested compound alone, 0.1 μM) amounted to 84.4%. In the assay with Vcap cells (tested compound alone, 1 μM), the viability at 1 µM stood at 77.4%. For the same compound, in the assay with Vcap cells (tested compound alone, 10 μM), the viability at 10 µM amounted to 74%. The “Survival rate of Vcap cells” value with Vcap cells (setting [1]) worked out at 45.7%; in the assay on Vcap cells (setting [3]), 47.1%; in the assay with Vcap cells (setting [5]), 40.5%; in the assay with Vcap cells (setting [7]), 41.2%; with Vcap cells (setting [9]), 37.8%; with Vcap cells (setting [11]), 38.8%. Further, the “Survival rate of Vcap cells” value in the assay with Vcap cells (tested compound alone, 1 μM) is 77.4%.
